From patent US20090263429A1, “Method of Preparing a Hydrogel” (The University of Manchester, priority 2005, published 2009) come the findings set out here.

The nature of this data set: 96 well screen of Fmoc/Cbz-amino acid and dipeptide with thermolysin (gelation). It counts as physicochemical. As to conditions: Fmoc-G and GG with thermolysin, 20 mM Fmoc-aa, 48 hours at room temperature. The protocol:
Fmoc-amino acids or Cbz-amino acids with dipeptides were weighed in to a clean universal to the different concentrations and the various ratios required. They were then suspended in deionised water, and solubilized by the addition of 0.5M NaOH to adjust the pH to 13. The particle size was reduced through the reduction of larger clumps by gentle manipulation with a spatula, and the subsequent immersion in a sonication bath. […] The pH was reduced by the addition dropwise from a 200 μl pipette of 0.1 M HCl with gentle vortexing until the value reached 7. […] Upon acquisition of a neutral pH, de-ionised water was added up to the required volume.
The enzyme, thermolysin, was provided in the form of a lyphophilized powder. This was weighed to a sterile universal, and then reconstituted in distilled water to a concentration of 1 mg/ml. In order to ensure the enzyme was fully solubilised, the solution was vortexed for thirty seconds, and stored at room temperature within a sealed container and used within thirty minutes. […]
A 96 well format was developed to screen large numbers of combinations of reactant ratios and concentrations. […] Relative quantities of these were added. […] Sufficient quantities of distilled water were added to make up to a final volume of […]. […] Results of the reactions were measured by HPLC, and the degree of conversion of Fmoc/Cbz-amino acid to Fmoc/Cbz-tripeptide was calculated.

On to Fmoc-triGlycine [Fmoc-GGG], for which the gel formation result was “doesn't form a gel”.
